Structures are written as SMILES. Where a name gives a salt, the structure may show the parent alone.

One data set relates to beagle dogs. In kind it is in vivo. Particulars: anesthetized dog, i.v. bolus 10 nmol/kg. Here is the method: Male beagle dogs were anesthetized with pentobarbital (35 mg/kg, i.v.) followed by constant i.v. infusion of pentobarbital (5 mg/kg/h). The animals were ventilated with room air by means of a mechanical respiration pump. Blood pressure was measured using a dual tip micromanometer catheter (Millar, Model SPC-770, 7F) inserted into the heart left ventricle via the carotid artery. Compounds were injected into the right femoral vein via catheter. Hemodynamic variables were computed using XYZ Real Time Spreadsheet software on a signal processing workstation (Modular Instruments, Inc.). Sixty minutes were allowed following surgery to achieve a steady-state baseline for the measured variables. Test compounds were administered by i.v. bolus (10 nmol/kg) and compared for their relative ability to elicit changes in blood pressure and heart rate over a five minute data collection period.

The test system of data set [1] is rats. Description: Chung Model of Neuropathic Pain. In kind it is in vivo. Particulars: rat, 50% threshold to VonFrey hairs.
Data set [2] concerns mice. Nature of the data set: Mouse Hot Plate Paradigm. In kind it is in vivo. Conditions: 30 minutes prior to testing, 55° C.; for minimal effective dose: ip, 0.5 h, i.p., read-out: MED Hot plate model (μmol/kg, i.p.).
In data set [3] the target is T1, peripheral ganglionic receptors (Homo sapiens, UniProt P30926+P32297).
T1 construct: Cells of the IMR-32 human neuroblastoma clonal cell line (ATCC, Rockville, Md.); host or cells: IMR-32 human neuroblastoma cells
T1 sequence (P32297 32-505): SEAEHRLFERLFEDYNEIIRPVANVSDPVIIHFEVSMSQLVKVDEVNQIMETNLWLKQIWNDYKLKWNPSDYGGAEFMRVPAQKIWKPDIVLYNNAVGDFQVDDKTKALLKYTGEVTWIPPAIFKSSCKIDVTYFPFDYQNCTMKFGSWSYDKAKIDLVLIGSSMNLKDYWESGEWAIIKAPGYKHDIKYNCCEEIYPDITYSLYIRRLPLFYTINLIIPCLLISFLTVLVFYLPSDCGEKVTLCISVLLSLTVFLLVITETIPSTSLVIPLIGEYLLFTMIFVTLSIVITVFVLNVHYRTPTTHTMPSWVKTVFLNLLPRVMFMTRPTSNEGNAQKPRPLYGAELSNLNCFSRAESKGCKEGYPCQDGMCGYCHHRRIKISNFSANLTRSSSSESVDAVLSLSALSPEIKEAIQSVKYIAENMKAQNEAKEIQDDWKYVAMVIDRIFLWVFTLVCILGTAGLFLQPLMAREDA
T1 sequence (P30926 22-498): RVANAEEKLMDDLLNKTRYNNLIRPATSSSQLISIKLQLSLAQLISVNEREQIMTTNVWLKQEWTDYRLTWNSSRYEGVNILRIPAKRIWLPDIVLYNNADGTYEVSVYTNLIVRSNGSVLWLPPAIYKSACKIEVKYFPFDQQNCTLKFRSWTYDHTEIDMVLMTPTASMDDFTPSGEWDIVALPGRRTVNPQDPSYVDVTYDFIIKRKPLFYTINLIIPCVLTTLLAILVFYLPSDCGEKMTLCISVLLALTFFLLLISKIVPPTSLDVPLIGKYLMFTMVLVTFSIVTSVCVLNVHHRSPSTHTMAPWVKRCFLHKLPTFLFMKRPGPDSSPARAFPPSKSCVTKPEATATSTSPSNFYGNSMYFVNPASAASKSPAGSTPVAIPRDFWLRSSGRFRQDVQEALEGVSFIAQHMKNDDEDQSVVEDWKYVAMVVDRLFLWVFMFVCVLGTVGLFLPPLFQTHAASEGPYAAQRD
Nature of the data set: 86Rb+ flux activation in IMR-32 human neuroblastoma cells. In kind it is cell-based. Particulars: 1 μM compound, % of maximum response to (S)-nicotine. The procedure:
Protocol for the Determination of Ability of Nicotinic Acetylcholine Receptor Ligands to Activate Peripheral Ganglionic Receptors
Cells of the IMR-32 human neuroblastoma clonal cell line (ATCC, Rockville, Md.) were maintained in a log phase of growth according to established procedures. Experimental cells were seeded at a density of 500,000 cells/mL into a 24-well tissue culture dish. Plated cells were allowed to proliferate for at least 48 hours before loading with 2 μCi/mL of ^86Rb^+ (35 Ci/mmol) overnight at 37° C. The ^86Rb^+ efflux assays were performed according to previously published protocols (Lukas, R. J., J. Pharmacol. Exp. Ther., 265: 294-302, 1993) except serum-free Dulbecco's Modified Eagle's Medium was used during the ^86Rb^+ loading, rinsing, and agonist-induced efflux steps. Data reflect the activation of ^86Rb^+ flux at a concentration of 1 μM, and reflect the response as a percentage of the maximum response elicited by (S)-nicotine.

Data set [4] deals with T2, neuronal nicotinic acetylcholine receptors (Rattus norvegicus, UniProt P09483+P12390).
T2 construct: crude synaptic membrane preparations from whole rat brain; from tissue; host or cells: whole rat brain, crude synaptic membranes
T2 sequence (P09483 31-630): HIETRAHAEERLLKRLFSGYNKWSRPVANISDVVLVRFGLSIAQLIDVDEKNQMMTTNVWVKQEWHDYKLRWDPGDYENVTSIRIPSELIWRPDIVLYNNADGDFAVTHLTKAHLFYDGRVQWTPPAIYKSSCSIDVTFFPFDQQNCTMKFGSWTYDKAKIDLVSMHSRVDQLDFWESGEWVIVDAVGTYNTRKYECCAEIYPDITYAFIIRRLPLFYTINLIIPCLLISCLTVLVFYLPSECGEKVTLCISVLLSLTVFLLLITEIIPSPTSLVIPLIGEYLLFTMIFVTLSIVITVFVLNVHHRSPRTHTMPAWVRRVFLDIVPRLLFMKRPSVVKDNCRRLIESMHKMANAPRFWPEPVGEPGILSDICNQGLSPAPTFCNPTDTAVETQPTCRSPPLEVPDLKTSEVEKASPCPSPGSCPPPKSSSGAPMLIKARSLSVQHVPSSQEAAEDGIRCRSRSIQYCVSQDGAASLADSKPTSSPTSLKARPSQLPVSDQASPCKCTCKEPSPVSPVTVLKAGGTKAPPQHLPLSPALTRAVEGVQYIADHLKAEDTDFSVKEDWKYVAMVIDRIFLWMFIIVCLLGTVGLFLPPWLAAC
T2 sequence (P12390 25-500): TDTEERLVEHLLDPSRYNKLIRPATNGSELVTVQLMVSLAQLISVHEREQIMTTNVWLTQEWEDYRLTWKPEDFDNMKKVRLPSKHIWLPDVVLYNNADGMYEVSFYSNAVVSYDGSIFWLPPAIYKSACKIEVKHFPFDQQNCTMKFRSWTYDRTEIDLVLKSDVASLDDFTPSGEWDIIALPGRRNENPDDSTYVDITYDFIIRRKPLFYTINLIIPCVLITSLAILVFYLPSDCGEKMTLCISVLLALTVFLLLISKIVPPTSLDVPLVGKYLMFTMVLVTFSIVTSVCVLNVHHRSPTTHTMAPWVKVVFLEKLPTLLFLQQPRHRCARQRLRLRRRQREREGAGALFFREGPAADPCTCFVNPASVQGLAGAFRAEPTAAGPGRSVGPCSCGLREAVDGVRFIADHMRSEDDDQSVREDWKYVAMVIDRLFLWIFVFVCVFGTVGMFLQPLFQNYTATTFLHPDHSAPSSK
Description: [3H]-cytisine binding to neuronal nicotinic acetylcholine receptors, whole rat brain membranes. Conditions: [3H]-cytisine 1.25 nM, whole rat brain membranes; read-out: [3H] CYT Ki. The procedure, abridged:
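Crude synaptic membranes from whole rat brain (125-150 μg protein) incubated with test compound and 1.25 nM [3H]-cytisine for 60 min at 4 °C in Tris-Cl buffer pH 7.4 with Na/K/Mg/Ca salts. Filtration through PEI-soaked filters; nonspecific binding with 10 μM (−)-nicotine; values as percentage of total binding.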

Data set [5] concerns mice. In kind it is in vivo. Conditions: mouse, i.p. The procedure: Motor coordination was assessed using an accelerating rotarod apparatus (Omnitech Electronics, Inc., Columbus, Ohio). Locomotor activity was monitored under dim light in a 41×41 cm. open field using a photobeam activity system (San Diego Instruments, San Diego, Calif.). The mouse was placed on a 3.5 cm diameter rod which increased in speed from 0 to 40 rpm over 120 seconds. The time required for the mouse to fall from the rod was recorded with a maximum score of 120 seconds. Twenty-five min after receiving an i.p. injection, the mice were placed in the open field for 5 min. After removal from the open field (i.e., 30 min after injection), they were immediately tested on the rotarod. Body temperature was assessed using a probe inserted 3 cm into the rectum approximately 35 min after injection. (YSI Tele-Thermometer, Yellow Springs Instrument Co., Inc., Yellow Springs, Ohio). Diazepam (10.5 μmol/kg, i.p.) was used as a positive control.

Another data set has as its system rat spinal cord cultures. Description: Neuroprotection against substance P or glutamate toxicity in primary spinal cord cultures (LDH release). Format: cell-based.
Data set [6] deals with neuromuscular junction nicotinic acetylcholine receptor (Tetronarce californica, UniProt P02710+P02714+P02718). Nature of the data set: biochemical. Format: binding, Torpedo Californica. Particulars: read-out: Ki (nM) α-bungarotoxin.
Sequence of neuromuscular junction nicotinic acetylcholine receptor (P02714 18-506): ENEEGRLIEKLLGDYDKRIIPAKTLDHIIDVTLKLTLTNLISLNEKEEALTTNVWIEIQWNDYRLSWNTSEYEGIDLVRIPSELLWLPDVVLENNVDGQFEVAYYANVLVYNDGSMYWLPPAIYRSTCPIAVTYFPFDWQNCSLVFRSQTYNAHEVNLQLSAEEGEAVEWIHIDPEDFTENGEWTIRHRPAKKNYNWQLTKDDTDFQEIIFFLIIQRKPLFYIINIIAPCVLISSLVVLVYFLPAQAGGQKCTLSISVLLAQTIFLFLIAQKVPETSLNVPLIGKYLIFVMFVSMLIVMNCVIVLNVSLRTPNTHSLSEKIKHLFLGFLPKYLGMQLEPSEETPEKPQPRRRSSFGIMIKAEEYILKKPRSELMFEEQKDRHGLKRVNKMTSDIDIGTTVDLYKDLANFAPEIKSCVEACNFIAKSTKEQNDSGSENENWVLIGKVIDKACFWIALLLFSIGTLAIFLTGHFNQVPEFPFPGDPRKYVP
Sequence of neuromuscular junction nicotinic acetylcholine receptor (P02710 25-461): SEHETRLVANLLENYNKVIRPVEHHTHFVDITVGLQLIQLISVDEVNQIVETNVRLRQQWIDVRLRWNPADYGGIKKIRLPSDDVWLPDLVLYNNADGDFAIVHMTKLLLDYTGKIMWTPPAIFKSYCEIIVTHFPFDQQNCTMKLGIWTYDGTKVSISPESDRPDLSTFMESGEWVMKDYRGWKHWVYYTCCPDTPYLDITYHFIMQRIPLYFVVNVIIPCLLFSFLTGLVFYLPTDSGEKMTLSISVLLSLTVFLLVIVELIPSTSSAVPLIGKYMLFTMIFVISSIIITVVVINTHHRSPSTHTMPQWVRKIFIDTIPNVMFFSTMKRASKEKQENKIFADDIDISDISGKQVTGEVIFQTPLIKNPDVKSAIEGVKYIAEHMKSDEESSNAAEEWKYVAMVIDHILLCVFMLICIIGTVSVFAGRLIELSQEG
Sequence of neuromuscular junction nicotinic acetylcholine receptor (P02712 25-493, further chain): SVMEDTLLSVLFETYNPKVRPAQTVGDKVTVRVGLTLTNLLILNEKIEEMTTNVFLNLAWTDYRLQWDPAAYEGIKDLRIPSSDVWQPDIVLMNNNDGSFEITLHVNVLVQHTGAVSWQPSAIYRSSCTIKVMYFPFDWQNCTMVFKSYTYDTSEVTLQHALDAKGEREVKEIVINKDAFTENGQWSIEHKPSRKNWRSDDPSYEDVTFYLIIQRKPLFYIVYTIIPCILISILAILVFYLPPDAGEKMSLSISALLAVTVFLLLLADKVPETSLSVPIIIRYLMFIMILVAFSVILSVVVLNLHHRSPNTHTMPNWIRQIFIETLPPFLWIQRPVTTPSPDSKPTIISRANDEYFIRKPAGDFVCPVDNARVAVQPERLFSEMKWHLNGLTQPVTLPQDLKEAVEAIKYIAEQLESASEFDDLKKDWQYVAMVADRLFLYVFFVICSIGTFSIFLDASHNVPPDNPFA
Sequence of neuromuscular junction nicotinic acetylcholine receptor (P02718 22-522): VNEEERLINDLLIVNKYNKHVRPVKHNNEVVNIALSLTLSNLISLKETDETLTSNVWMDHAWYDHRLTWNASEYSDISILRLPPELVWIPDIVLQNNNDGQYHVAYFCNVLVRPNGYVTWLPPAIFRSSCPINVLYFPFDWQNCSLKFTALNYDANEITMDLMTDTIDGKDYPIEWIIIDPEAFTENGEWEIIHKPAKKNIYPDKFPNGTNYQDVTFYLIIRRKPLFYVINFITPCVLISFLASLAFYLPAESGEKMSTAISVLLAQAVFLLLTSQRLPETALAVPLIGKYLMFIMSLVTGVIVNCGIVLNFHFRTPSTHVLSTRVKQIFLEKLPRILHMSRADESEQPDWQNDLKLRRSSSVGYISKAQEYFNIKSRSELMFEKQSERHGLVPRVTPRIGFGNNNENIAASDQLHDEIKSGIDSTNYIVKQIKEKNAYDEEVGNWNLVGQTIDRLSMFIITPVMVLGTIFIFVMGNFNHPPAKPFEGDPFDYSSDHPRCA
The subject of data set [7] is rats. Nature of the data set: Carrageenan paw edema model. Format: in vivo. Particulars: rat.
For data set [8], the system named is rats. Nature of the data set: Chung Model of Neuropathic Pain following repeated dosing. In kind it is in vivo. Conditions: rat, in vivo, ip. The procedure:
Animals were surgically prepared as described above for the Chung model. For assessment of each test compound, two treatment groups (6 animals each) were established. One group was injected (i.p.) with test compound twice daily for 5 days, and the other group was injected on the same schedule with saline. Responses to von Frey hairs were assessed as described above both before, and 15 minutes after, injection on the first 2 days and also on the 5th day. The saline-treatment group was given saline for the first 4 days and on the morning of the 5th day, but received a challenge of the test compound in the afternoon of the fifth day.

As for `Clc1ccc(OC[C@H]2CCN2)cn1` [Example 1, 5-((2R)-Azetidinylmethoxy)-2-chloropyridine], in the data set on beagle dogs, the “Increase in Diastolic Blood Pressure (mm Hg)” value amounted to 23.2 ± 4.6 mm Hg, the “Increase in Heart Rate (beats/min)” value is on record as 7.8 ± 2.9 beats/min, the “blood pressure increase as fraction of that seen with Example 19” value was “⅓” and the “heart rate increase as fraction of that seen with Example 19” value is recorded as “⅓”.

With `Fc1ccc(OCC2CCN2)cn1` [Example 8, 5-(2R)-Azetidinylmethyloxy)-2-fluoropyridine dibenzoate], the “MED Chung model (μmol/kg, i.p.)” value in the data set with rats [1] was 0.62 µmol/kg. In addition, in the data set with mice [2], the minimal effective dose is 1.9 µmol/kg. In data set [3], the “IMR-32 % maximal nicotine response at 1 μM Cmpd conc'n” value (shortened to “IMR-32 % maximal nicotine response”) was 46%. Further, the Ki in [4] was 0.06 nM. Moreover, the “dose at which a rotarod effect was reached” value with mice [5] is on record as 19.

Consider `Fc1ccc(OC[C@@H]2CCN2)cn1` [Example 9, 5-(2S)-Azetidinylmethyloxy)-2-fluoropyridine dibenzoate], for which the minimal effective dose with mice [2] is 0.62 µmol/kg. In addition, the “IMR-32 % maximal nicotine response” value in data set [3] is given as 103%. Besides, in data set [4], the Ki worked out at 0.16 nM. For the same molecule, the “dose showing rotarod impairments” value in the data set with mice [5] (in 2 of 3 experiments) was 0.62 µmol/kg.

Take `Clc1ncc(OC[C@@H]2CCN2)cc1Br` [Example 17, 5-((2S)-azetidinylmethoxy)-3-bromo-2-chloropyridine hydrochloride]: in the data set on rats [1], the “MED Chung model (μmol/kg, i.p.)” value amounted to 0.19 µmol/kg. Also, in the data set with mice [2], the minimal effective dose was determined as 1.9 µmol/kg. The “IMR-32 % maximal nicotine response” value in data set [3] was 120%. In addition, in data set [4], the Ki was found to be 0.02 nM.

Regarding `Cl.Cl.Clc1ccc(OC[C@@H]2CCN2)cn1` [Example 19, 5-((2S)-Azetidinylmethyloxy)-2-chloropyridine dihydrochloride], in the data set with beagle dogs, the “Increase in Diastolic Blood Pressure (mm Hg)” value is 67.3 ± 3.2 mm Hg and the “Increase in Heart Rate (beats/min)” value is recorded as 26.0 ± 7.8 beats/min. The “less potent as a neuroprotectant in spinal cord” value with rat spinal cord cultures (relative to compound of Example 4) was determined as 10 fold. Further, in the data set with rats [1], the “MED Chung model (μmol/kg, i.p.)” value is 0.3 µmol/kg. Further, in the data set with mice [2], the “MED Hot plate model (μmol/kg, i.p.)” value turned out to be 0.62 µmol/kg. Besides, the Ki in data set [6] amounted to 1300 nM. Moreover, in [3], the “IMR-32 % maximal nicotine response” value was 173%. In addition, the Ki in data set [4] amounted to 0.04 nM.

Regarding `CNC1(C)C2CCC(C2)C1(C)C` (centres unmarked) [mecamylamine, reference compound], the “block of the neuroprotective effect by nicotinic antagonists” value in the data set with rat spinal cord cultures (mecamylamine 10 μM, MLA 10 nM, α-BTX 1 nM) is given as “blocked”. The “prevention of the paw edema effect of Example 4 by nicotinic antagonist” value with rats [7] is reported as “prevented”; in the data set with rats [7] (listed as mecaamylamine), “prevents this effect”.

With `CN1CC[C@]23c4c5ccc(O)c4O[C@H]2[C@@H](O)C=C[C@H]3[C@H]1C5` [morphine, reference compound], in the data set on rats [8], the “anti-allodynic effect following repeated dosing” value was “significantly reduced”.

Usually Ki stands for the dissociation constant of the complex between target and ligand, obtained from inhibition or displacement.

The record behind these values is US6403575B1, “3-Pyridyl enantiomers and their use as analgesics” (Abbott Laboratories, priority 1996, dated 2002).
